Measured values from patent publication US7932251B2, “6-phenyl-1H-imidazo[4,5-c]pyridine-4-carbonitrile derivatives” (priority 2007, dated 2011).

These compounds were tested against recombinant human Cathepsin S (Homo sapiens, UniProt P25774) (assay: Cathepsin S assay: inhibition of recombinant human cathepsin S, fluorogenic substrate Z-Val-Val-Arg-AMC).
Type: biochemical
Procedure: Cathepsin S Assay Procedure
To a 384 well microtitre plate is added 10 μl of a 100 μM solution of test compound in assay buffer (110 mM sodium acetate pH5.5, 5 mM EDTA, 5 mM dithiothreitol) with 10% dimethylsulfoxide (DMSO), plus 20 μl of 250 μM solution of the substrate
Z-Val-Val-Arg-AMC (7-amido-coumarine derivative of the tripeptide N-benzyloxycarbonyl-Val-Val-Arg-OH) in assay buffer and 45 μl of assay buffer. 25 μl of a 2 mg/l solution of activated recombinant human cathepsin S, in assay buffer, is then added to the well, yielding a final inhibitor concentration of 10 μM. Enzyme activity is determined by measuring the fluorescence of the liberated aminomethylcoumarin at […] using 390 nm excitation, at 20 minutes. Percentage enzyme activity is calculated by comparison of this activity to that of a solution containing no inhibitor.

recombinant human Cathepsin S, sequence (P25774 115-331): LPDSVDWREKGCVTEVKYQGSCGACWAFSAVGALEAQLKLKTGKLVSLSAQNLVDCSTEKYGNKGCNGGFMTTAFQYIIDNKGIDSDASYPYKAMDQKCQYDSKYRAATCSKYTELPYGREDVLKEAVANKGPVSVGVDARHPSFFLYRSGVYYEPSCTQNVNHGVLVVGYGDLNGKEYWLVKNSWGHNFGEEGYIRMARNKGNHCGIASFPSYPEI

Compound | IC50
CN1CCN(CCCOc2ccc(-c3cc4c(ncn4C)c(C#N)n3)cc2C(F)(F)F)CC1(C)C [Example 4a, 1-Methyl-6-{3-(trifluoromethyl)-4-[3-(3,3,4-trimethylpiperazin-1-yl)-propoxy]-phenyl}-1H-imidazo[4,5-c]pyridine-4-carbonitrile] | < 100 nM
CCc1nccn1CCCOc1ccc(-c2cc3c(ncn3C)c(C#N)n2)cc1C(F)(F)F [Example 7b, 6-{4-[3-(2-Ethyl-imidazol-1-yl)-propoxy]-3-(trifluoromethyl)-phenyl}-1-methyl-1H-imidazo[4,5-c]pyridine-4-carbonitrile] | < 100 nM
CN1CCN(CCCOc2ccc(-c3cc4c(ncn4C)c(C#N)n3)cc2C(F)(F)F)CC1 [Example 4e, 1-Methyl-6-{4-[3-(4-methylpiperazin-1-yl)-propoxy]-3-(trifluoromethyl)-phenyl}-1H-imidazo[4,5-c]pyridine-4-carbonitrile] | < 100 nM
CN1CCC2(CC1)NC(=O)N(CCOc1ccc(-c3cc4c(ncn4C)c(C#N)n3)cc1C(F)(F)F)C2=O [Example 11, 1-Methyl-6-{4-[2-(8-methyl-2,4-dioxo-1,3,8-triaza-spiro[4.5]dec-3-yl)-ethoxy]-3-(trifluoromethyl)-phenyl}-1H-imidazo[4,5-c]pyridine-4-carbonitrile] | < 100 nM
CNC(=O)C1CCN(CCCOc2ccc(-c3cc4c(ncn4C)c(C#N)n3)cc2C(F)(F)F)CC1 [Example 5a, 1-Methyl-6-(4-{3-[4-(N-methylaminocarbonyl)-piperidin-1-yl]-propoxy}-3-(trifluoromethyl)-phenyl)-1H-imidazo[4,5-c]pyridine-4-carbonitrile] | < 100 nM
CCN1CCN(CCCOc2ccc(-c3cc4[nH]cnc4c(C#N)n3)cc2C(F)(F)F)CC1 [Example 20f] | < 100 nM
Cn1cnc2c(C#N)nc(-c3ccc(OCc4ccccn4)c(C(F)(F)F)c3)cc21 [Example 13c, 1-Methyl-6-[4-(pyridin-2-yl-methoxy)-3-(trifluoromethyl)-phenyl]-1H-imidazo[4,5-c]pyridine-4-carbonitrile] | < 100 nM
CN(C)CCCOc1ccc(-c2cc3c(ncn3C)c(C#N)n2)cc1C(F)(F)F [Example 2a, 6-[4-(3-Dimethylaminopropoxy)-3-(trifluoromethyl)-phenyl]-1-methyl-1H-imidazo[4,5-g]pyridine-4-carbonitrile] | < 100 nM
Cn1cnc2c(C#N)nc(-c3ccc(OCCCO)c(C(F)(F)F)c3)cc21 [Example 1] | < 100 nM
Cn1cnc2c(C#N)nc(-c3ccc(OCCN4C(=O)NC5(CCNCC5)C4=O)c(C(F)(F)F)c3)cc21 [Example 12, 6-(4-[2-(2,4-Dioxo-1,3,8-triaza-spiro[4.5]dec-3-yl)-ethoxy]-3-(trifluoromethyl)-phenyl]-1-methyl-1H-imidazo[4,5-c]pyridine-4-carbonitrile] | < 100 nM
C[C@@H]1CN(CCOc2ccc(-c3cc4c(ncn4C)c(C#N)n3)cc2C(F)(F)F)C[C@H](C)N1 [Example 9d, 6-{4-[2-(cis-3,5-dimethyl-piperazin-1-yl)-ethoxy]3-(trifluoromethyl)-phenyl}-1-methyl-1H-imidazo[4,5-c]pyridine-4-carbonitrile] | < 100 nM
CCN(CC)CCCOc1ccc(-c2cc3c(ncn3C)c(C#N)n2)cc1C(F)(F)F [Example 2u, 6-[4-(3-N,N-Diethylamino-propoxy)-3-(trifluoromethyl)-phenyl]-1-methyl-1H-imidazo[4,5-d]pyridine-4-carbonitrile] | < 100 nM
Cn1cnc2c(C#N)nc(-c3ccc(OCCCN4CCCC4)c(C(F)(F)F)c3)cc21 [Example 2c, 1-Methyl-6-[4-(3-pyrrolidin-1-ylpropoxy)-3-(trifluoromethyl)-phenyl]-1H-imidazo[4,5-c]pyridine-4-carbonitrile] | < 100 nM
Cn1cnc2c(C#N)nc(-c3ccc(OCCCN4CCNC(C)(C)C4)c(C(F)(F)F)c3)cc21 [Example 4b, 6-{4-[3-(3,3-Dimethylpiperazin-1-yl)-propoxy]-3-(trifluoromethyl)-phenyl}-1-methyl-1H-imidazo[4,5-c]pyridine-4-carbonitrile] | < 100 nM
CCN1CCN(CCCOc2ccc(-c3cc4c(ncn4C)c(C#N)n3)cc2C(F)(F)F)CC1 [Example 4f, 6-{4-[3-(4-Ethylpiperazin-1-yl)-prooxy]-3-(trifluoromethyl)-phenyl}-1-methyl-1H-imidazo[4,5-c]pyridine-4-carbonitrile] | < 100 nM
